# Calls of active or inactive are those of the source. The rule behind the calls is not given here.
# Key:
# [1] = test system: H9c2; experiment: Antioxidant activity against H2O2-induced oxidative stress in rat H9c2 cells assessed as cell viability at 5 uM pretreated with compounds for 18 hrs followed by H2O2 stimulation for 24 hrs by MTT assay; type: functional, cell-based; conditions: time 42.0 hrs
# [2] = test system: H9c2; experiment: Cytoprotective activity against H2O2-induced rat H9c2 cells assessed as reversal of colony formation inhibition by colony formation assay; type: functional, cell-based; conditions: dose 1.25-5 µM
# [3] = test system: H9c2; experiment: […] of H2O2-induced oxidative stress in rat H9c2 cells assessed as decrease in MDA level pretreated with compounds for 18 hrs followed by H2O2 stimulation for 2 hrs by MDA assay; type: functional, cell-based; conditions: dose 1.25-5 µM, time 20.0 hrs
# [4] = test system: H9c2; experiment: Cytoprotective activity against high glucose-induced oxidative stress in rat H9c2 cells assessed as inhibition of cell viability pretreated with compounds for 18 hrs followed by H2O2 stimulation for 24 hrs by MTT assay; type: functional, cell-based; conditions: dose 0.625-5 µM, time 42.0 hrs
# [5] = test system: H9c2; experiment: Activation of Nrf2 nuclear translocation in rat H9c2 cells assessed as increase in accumulation of Nrf2 in nucleus at 10 uM incubated for 6 hrs by DAPI staining based fluorescence microscopic analysis; type: cell-based; conditions: filed as activator
# [6] = test system: H9c2; experiment: Upregulation of HO-1 protein expression in rat H9c2 cells incubated for 18 hrs by Western blot analysis; type: functional, cell-based; conditions: dose 0.625-2.5 µM
# [7] = test system: H9c2; experiment: Inhibition of H2O2-induced oxidative stress in rat H9c2 cells assessed as reduction intracellular ROS level pretreated with compounds for 18 hrs followed by H2O2 stimulation for 2 hrs by DCFH-DA based fluorescence microscopic analysis; type: functional, cell-based; conditions: dose 1.25-5 µM, time 20.0 hrs
# [8] = test system: H9c2; experiment: Cytoprotective activity against H2O2-induced oxidative stress in rat H9c2 cells assessed as inhibition of cell viability pretreated with compounds for 18 hrs followed by H2O2 stimulation for 24 hrs by MTT assay; type: functional, cell-based; conditions: dose 0.625-5 µM, time 42.0 hrs
# [9] = test system: H9c2; experiment: Downregulation of Nrf2 expression in rat H9c2 cells transfected with Nrf2 siRNA at 0.625 uM pretreated with compound for 18 hrs followed by H2O2 stimulation for 24 hrs by Western blot analysis; type: functional, cell-based; conditions: time 42.0 hrs
SMILES,Activity [1],further results
COc1ccc(OC)c([C@H]2CN(C)C3(C(=O)Nc4ccccc43)[C@H]2C(=O)c2ccc(O)c(O)c2)c1 (some centres undefined),Active,Activity [2]: Dose-dependent-effect; Activity [3]: Dose-dependent-effect; Activity [4]: Dose-dependent-effect; Activity [5]: Active; Activity [6]: Dose-dependent-effect; inhibition [7]: Dose-dependent-effect; Activity [8]: Dose-dependent-effect; Activity [9]: Active
COc1ccccc1[C@H]1CN(C)[C@]2(C(=O)c3cccc4cccc2c34)[C@H]1C(=O)c1ccc(O)c(O)c1,Active,
COc1ccc2c(c1)C1(C(=O)N2)[C@@H](C(=O)c2ccc(O)c(O)c2)[C@@H](c2ccccc2OC)CN1C (some centres undefined),Active,Activity [2]: Dose-dependent-effect; Activity [3]: Dose-dependent-effect; Activity [4]: Dose-dependent-effect; inhibition [7]: Dose-dependent-effect; Activity [8]: Dose-dependent-effect
COc1ccc(OC)c(/C=C/C(=O)c2ccc(O)c(O)c2)c1,Active,
COc1ccc(OC)c([C@H]2CN(C)C3(C(=O)Nc4ccc(OC)cc43)[C@H]2C(=O)c2ccc(O)c(O)c2)c1 (some centres undefined),Active,
COc1ccc(OC)c([C@H]2CN(C)C3(C(=O)Nc4ccc(Cl)cc43)[C@H]2C(=O)c2ccc(O)c(O)c2)c1 (some centres undefined),Active,
COc1ccccc1[C@H]1CN(C)C2(C(=O)Nc3ccc(F)cc32)[C@H]1C(=O)c1ccc(O)c(O)c1 (some centres undefined),Active,
COc1ccccc1[C@H]1CN(C)C2(C(=O)Nc3ccccc32)[C@H]1C(=O)c1ccc(O)c(O)c1 (some centres undefined),Active,
COc1ccccc1[C@H]1CN(C)C2(C(=O)Nc3ccc(C)cc32)[C@H]1C(=O)c1ccc(O)c(O)c1 (some centres undefined),Active,
COc1ccccc1[C@H]1CN(C)C2(C(=O)Nc3ccc(Br)cc32)[C@H]1C(=O)c1ccc(O)c(O)c1 (some centres undefined),Active,
COc1ccc(OC)c([C@H]2CN(C)C3(C(=O)Nc4ccc(F)cc43)[C@H]2C(=O)c2ccc(O)c(O)c2)c1 (some centres undefined),Active,
COc1ccc(OC)c([C@H]2CN(C)[C@]3(C(=O)c4cccc5cccc3c45)[C@H]2C(=O)c2ccc(O)c(O)c2)c1,Active,
COc1ccc(OC)c([C@H]2CN(C)C3(C(=O)Nc4ccc(C)cc43)[C@H]2C(=O)c2ccc(O)c(O)c2)c1 (some centres undefined),Active,
COc1ccccc1[C@H]1CN(C)C2(C(=O)Nc3ccc(Cl)cc32)[C@H]1C(=O)c1ccc(O)c(O)c1 (some centres undefined),Active,
COc1ccc(OC)c([C@H]2CN(C)C3(C(=O)Nc4ccc(Br)cc43)[C@H]2C(=O)c2ccc(O)c(O)c2)c1 (some centres undefined),Active,
COc1ccccc1/C=C/C(=O)c1ccc(O)c(O)c1,Active,

# Reference: ChEMBL document CHEMBL6109033, “Design and synthesis of novel antioxidants derived from chalcones and their protective effects on cardiomyocytes by activating Nrf2/HO-1 pathway” (Bioorg Med Chem Lett, 2025)
